Data published in PMC4965013, “Open Source Drug Discovery with the Malaria Box Compound Collection for Neglected Diseases and Beyond” (PLoS Pathogens, 2016).
pEC50, pIC50: −log10 of the molar value. Blank lines part the entries; values can stand above or below the compound they belong to.

What was measured:
P. falciparum = assay: EC50 listed in S2 Table Metabolomics (used to set the concentration tested); assay type: cell-based; conditions: Plasmodium falciparum, read-out: EC50_nM
[1] = test system: bovine Babesia and equine Babesia and Theileria parasites; assay: Babesia and Theileria fluorescence-based assay, all four species; assay type: cell-based, B. bovis, B. bigemina, T. equi, B. caballi
[2] = test system: P. falciparum 3D7 trophozoites; assay: Metabolomic fingerprint profiling LC-MS; assay type: cell-based, Plasmodium falciparum; parameters: UDP-D-glucose / ADP-D-glucose: unit not given here; conditions: for Acetyllysine / N-acetyl-L-ornithine / N-carbamoyl-L-aspartate / NADPH / dAMP / dCMP / dTDP / dTMP / dTTP / dihydroorotate / orotate / DLH / DLS/SDL/SID / PD / PEE / PVNF / 3-phosphoglycerate / ADP-D-glucose / ATP / CDP / D-sedoheptulose-1/7-phosphate / FAD / GMP / NAD+ / NADP+ / Octoluse Bisphosphate / Pyroglutamic acid / UDP-D-glucose / UDP-D-glucuronate / UDP-N-acetyl-glucosamine / UDP / UMP / UTP / a-ketoglutarate / citrate/isocitrate / cytidine / dATP / dGMP/AMP / fumarate / glucose-1/6-phosphate / glycerate / guanine / guanosine / hypoxanthine / indole / inosine / nicotinate / ornithine / phosphoenolpyruvate / pyruvate / ribose-phosphate / sarcosine/alanine / sn-glycerol-3-phosphate / succinate/methylmalonic acid / uridine / xanthosine: S2 Table Metabolomics; for Acetyllysine: metabolite Acetyllysine; for N-acetyl-L-ornithine: metabolite N-acetyl-L-ornithine; for N-carbamoyl-L-aspartate: metabolite N-carbamoyl-L-aspartate; for NADPH: metabolite NADPH; for dAMP: metabolite dAMP; for dCMP: metabolite dCMP; for dTDP: metabolite dTDP; for dTMP: metabolite dTMP; for dTTP: metabolite dTTP; for dihydroorotate: metabolite dihydroorotate; for orotate: metabolite orotate; for DLH: peptide DLH; for DLS/SDL/SID: peptide DLS/SDL/SID; for PD: peptide PD; for PEE: peptide PEE; for PVNF: peptide PVNF; for 3-phosphoglycerate: metabolite 3-phosphoglycerate; for ADP-D-glucose: metabolite ADP-D-glucose; for ATP: metabolite ATP; for CDP: metabolite CDP; for CDP / D-sedoheptulose-1/7-phosphate / GMP / Octoluse Bisphosphate / UDP / UMP / UTP / citrate/isocitrate / dGMP/AMP / fumarate / glucose-1/6-phosphate / glycerate / guanine / guanosine / inosine / pyruvate / sarcosine/alanine / succinate/methylmalonic acid / uridine / xanthosine: change in metabolite level after compound treatment; for D-sedoheptulose-1/7-phosphate: metabolite D-sedoheptulose-1/7-phosphate; for FAD: metabolite FAD; for GMP: metabolite GMP; for NAD+: metabolite NAD+; for NADP+: metabolite NADP+; for Octoluse Bisphosphate: metabolite Octoluse Bisphosphate; for Pyroglutamic acid: metabolite Pyroglutamic acid; for UDP-D-glucose: metabolite UDP-D-glucose; for UDP-D-glucuronate: metabolite UDP-D-glucuronate; for UDP-N-acetyl-glucosamine: metabolite UDP-N-acetyl-glucosamine; for UDP: metabolite UDP; for UMP: metabolite UMP; for UTP: metabolite UTP; for a-ketoglutarate: metabolite a-ketoglutarate; for citrate/isocitrate: metabolite citrate/isocitrate; for cytidine: metabolite cytidine; for dATP: metabolite dATP; for dGMP/AMP: metabolite dGMP/AMP; for fumarate: metabolite fumarate; for glucose-1/6-phosphate: metabolite glucose-1/6-phosphate; for glycerate: metabolite glycerate; for guanine: metabolite guanine; for guanosine: metabolite guanosine; for hypoxanthine: metabolite hypoxanthine; for indole: metabolite indole; for inosine: metabolite inosine; for 2_3-Diphosphoglyceric acid / 4-phosphopantothenate / 6-phospho-D-gluconate / FMN / IMP / Pyrophosphate / Sedoheptoluse bisphosphate / cyclic-AMP / glutathione disulfide / lactate / myo-inositol: metabolite level change after treatment; for nicotinate: metabolite nicotinate; for ornithine: metabolite ornithine; for phosphoenolpyruvate: metabolite phosphoenolpyruvate; for pyruvate: metabolite pyruvate; for ribose-phosphate: metabolite ribose-phosphate; for sarcosine/alanine: metabolite sarcosine/alanine; for sn-glycerol-3-phosphate: metabolite sn-glycerol-3-phosphate; for succinate/methylmalonic acid: metabolite succinate/methylmalonic acid; for uridine: metabolite uridine; for xanthosine: metabolite xanthosine

Structure (SMILES): C[n+]1c2ccccc2nc2ccc(NCCO)cc21 [MMV396693]
pEC50 (P. falciparum): 6.53
anti-Babesia and anti-Theileria hits, IC50 in words [1]: nanomolar IC50s
mean selectivity indices (SI) [1]: greater than 230
pIC50 ([1]; Babesia, read-out: IC50s for both bovine Babesia and equine Babesia and Theileria parasites): 6.12 to 7.37
Acetyllysine [2]: -0.1505
N-acetyl-L-ornithine [2]: -0.01449
N-carbamoyl-L-aspartate [2]: 0.2036
NADPH [2]: 1.101
dAMP [2]: 0.3768
dCMP [2]: -0.245
dTDP [2]: -0.2826
dTMP [2]: -0.3704
dTTP [2]: 0.008069
dihydroorotate [2]: 0.3914
orotate [2]: -0.3502
DLH [2]: 0.01259
DLS/SDL/SID [2]: 0.07661
PD [2]: 0.009709
PEE [2]: -0.05476
PVNF [2]: 0.1478
3-phosphoglycerate [2]: 0.5809
ADP-D-glucose [2]: 0.23
ATP [2]: 0.04335
CDP [2]: -0.06362
D-sedoheptulose-1/7-phosphate [2]: -0.05616
FAD [2]: 0.2669
GMP [2]: 0.08605
NAD+ [2]: 0.2129
NADP+ [2]: 0.2138
Octoluse Bisphosphate [2]: 0.3676
Pyroglutamic acid [2]: 0.1161
UDP-D-glucose [2]: 0.1757
UDP-D-glucuronate [2]: 0.2718
UDP-N-acetyl-glucosamine [2]: 0.1832
UDP [2]: -0.3369
UMP [2]: -0.448
UTP [2]: 0.03764
a-ketoglutarate [2]: -0.1814
citrate/isocitrate [2]: 1.401
cytidine [2]: 0.9119
dATP [2]: 0.0739
dGMP/AMP [2]: 0.007618
fumarate [2]: 0.1883
glucose-1/6-phosphate [2]: -0.01569
glycerate [2]: 0.2787
guanine [2]: 0.244
guanosine [2]: 0.1378
hypoxanthine [2]: 0.1496
indole [2]: 0.3367
inosine [2]: 0.5603
2_3-Diphosphoglyceric acid [2]: 0.305
4-phosphopantothenate [2]: 0.02035
6-phospho-D-gluconate [2]: 0.201
FMN [2]: 0.1776
IMP [2]: 0.1162
Pyrophosphate [2]: 0.4038
Sedoheptoluse bisphosphate [2]: 0.06738
cyclic-AMP [2]: 0.09405
glutathione disulfide [2]: 0.1827
lactate [2]: 0.3349
myo-inositol [2]: -0.009161
nicotinate [2]: 0.1527
ornithine [2]: 0.2843
phosphoenolpyruvate [2]: 0.01034
pyruvate [2]: -0.1004
ribose-phosphate [2]: 0.7027
sarcosine/alanine [2]: 0.6024
sn-glycerol-3-phosphate [2]: 0.3061
succinate/methylmalonic acid [2]: 0.6812
uridine [2]: 0.1028
xanthosine [2]: 0.2966

anti-Babesia and anti-Theileria hits, IC50 in words [1]: nanomolar IC50s
Structure (SMILES): COc1ccccc1N=C1C(=O)c2ccccc2C(O)=C1N1CCCCC1 [MMV085203]
Acetyllysine [2]: 0.5338
N-acetyl-L-ornithine [2]: 0.417
N-carbamoyl-L-aspartate [2]: -0.03953
NADPH [2]: 1.905
dAMP [2]: 0.2134
dCMP [2]: -0.3018
dTDP [2]: 0.1555
dTMP [2]: 0.3091
dTTP [2]: 0.09879
dihydroorotate [2]: -0.4435
orotate [2]: -0.006229
DLH [2]: 0.05618
DLS/SDL/SID [2]: 0.215
PD [2]: -0.1394
PEE [2]: 0.002208
PVNF [2]: 0.05104
3-phosphoglycerate [2]: 0.03547
ADP-D-glucose [2]: -0.1308
ATP [2]: 0.1374
CDP [2]: 0.2087
D-sedoheptulose-1/7-phosphate [2]: 0.1847
FAD [2]: -0.04298
GMP [2]: 0.06518
NAD+ [2]: -0.0924
NADP+ [2]: 0.08883
Octoluse Bisphosphate [2]: 0.05889
Pyroglutamic acid [2]: 0.3327
UDP-D-glucose [2]: 0.02335
UDP-D-glucuronate [2]: 0.1307
UDP-N-acetyl-glucosamine [2]: -0.006531
UDP [2]: 0.1215
UMP [2]: -0.1092
UTP [2]: 0.1112
a-ketoglutarate [2]: 0.6853
citrate/isocitrate [2]: 0.6482
cytidine [2]: -0.04401
dATP [2]: 0.1251
dGMP/AMP [2]: 0.1681
fumarate [2]: 0.1969
glucose-1/6-phosphate [2]: -0.1808
glycerate [2]: 0.6274
guanine [2]: 0.2252
guanosine [2]: 0.5678
hypoxanthine [2]: 0.8131
indole [2]: 0.6437
inosine [2]: 0.2953
2_3-Diphosphoglyceric acid [2]: 0.04377
4-phosphopantothenate [2]: 0.03169
6-phospho-D-gluconate [2]: 0.09424
FMN [2]: -0.0513
IMP [2]: 0.06497
Pyrophosphate [2]: -0.1041
Sedoheptoluse bisphosphate [2]: 0.1294
cyclic-AMP [2]: 0.1643
glutathione disulfide [2]: -0.1576
lactate [2]: 0.4496
myo-inositol [2]: 0.5579
nicotinate [2]: 0.3875
ornithine [2]: 0.05264
phosphoenolpyruvate [2]: 0.005153
pyruvate [2]: 1.4601
ribose-phosphate [2]: 1.0837
sarcosine/alanine [2]: 0.0342
sn-glycerol-3-phosphate [2]: -0.8649
succinate/methylmalonic acid [2]: 0.5863
uridine [2]: 0.4561
xanthosine [2]: 0.5245
